Experimental data reported in patent US9260425B2 (Genetech, Inc., priority 2011, dated 2016).

Target: Pim-1 (Homo sapiens (Human), UniProt P11309)
Assay: Pim kinase binding activity assay (Example 901), PIM-1 enzyme, Caliper microfluidic peptide phosphorylation
Type: biochemical
Details: 20 pM PIM-1, 10 μM ATP, 1 μM FAM-peptide, 90 minutes at room temperature
Procedure, shortened: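 PIM-1 at 20 pM phosphorylated 1 μM FAM-labelled Pim peptide with 10 μM ATP in HEPES pH 7.2, MgCl2, Tween 20 and DTT for 90 min at room temperature. EDTA stopped the reaction, and product and substrate were resolved by microfluidic electrophoresis (ex 488/em 530 nm). Ki was derived from substrate conversion.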

Sequence of Pim-1 (P11309 whole entry): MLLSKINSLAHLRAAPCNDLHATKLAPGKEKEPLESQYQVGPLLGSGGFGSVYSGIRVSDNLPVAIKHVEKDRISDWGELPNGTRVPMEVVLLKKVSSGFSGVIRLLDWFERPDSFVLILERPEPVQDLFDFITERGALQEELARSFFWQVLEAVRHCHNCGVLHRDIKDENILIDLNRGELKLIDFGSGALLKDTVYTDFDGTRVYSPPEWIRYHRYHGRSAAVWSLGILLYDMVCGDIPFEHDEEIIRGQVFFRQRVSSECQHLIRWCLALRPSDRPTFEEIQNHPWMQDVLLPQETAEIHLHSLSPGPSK

Structure (SMILES)	Ki [nM]
CC(C)(C)n1cc(-c2cc3c(-c4cccc(N5CCNCC5)n4)n[nH]c3cn2)cn1 [Example 448, 5-(1-tert-butyl-1H-pyrazol-4-yl)-3-(6-(piperazin-1-yl)pyridin-2-yl)-1H-pyrazolo[3,4-c]pyridine]	0.376
NCCNC(=O)c1cccc(-c2n[nH]c3cnc(-c4cccnc4)cc23)n1 [Example 326, N-(2-aminoethyl)-6-(5-(pyridin-3-yl)-1H-pyrazolo[3,4-c]pyridin-3-yl)picolinamide]	17.7
Cc1n[nH]c2cnc(-c3cnn(C)c3)cc12 [Example 127, 3-methyl-5-(1-methyl-1H-pyrazol-4-yl)-1H-pyrazolo[3,4-c]pyridine]	261
O=C1N(CC2CCNC2)CCN1c1n[nH]c2cnc(-c3cccnc3)cc12 (stereo not drawn) [Example 303, 1-(5-(pyridin-3-yl)-1H-pyrazolo[3,4-c]pyridin-3-yl)-3-(pyrrolidin-3-ylmethyl)imidazolidin-2-one]	4.11
NC[C@@H]1CCN(c2ccncc2-c2cc3c(-c4ccccc4F)n[nH]c3cn2)C1 [Example 130, (S)-(1-(3-(3-(2-fluorophenyl)-1H-pyrazolo[3,4-c]pyridin-5-yl)pyridin-4-yl)pyrrolidin-3-yl)methanamine]	1500
N#CCc1cc2c(-c3cccc(N4CCNCC4)n3)n[nH]c2cn1 [Example 235, 2-(3-(6-(piperazin-1-yl)pyridin-2-yl)-1H-pyrazolo[3,4-c]pyridin-5-yl)acetonitrile]	583
Cc1n[nH]c2cnc(-c3cnccn3)cc12 [Example 118, 3-methyl-5-(pyrazin-2-yl)-1H-pyrazolo[3,4-c]pyridine]	620
N#CCc1n[nH]c2cnc(-c3cn[nH]c3)cc12 [Example 145, 2-(5-(1H-pyrazol-4-yl)-1H-pyrazolo[3,4-c]pyridin-3-yl)acetonitrile]	324
CCn1cc(-c2cc3c(-c4cc(C5CC5)ccn4)n[nH]c3cn2)cn1 [Example 484, 3-(4-cyclopropylpyridin-2-yl)-5-(1-ethyl-1H-pyrazol-4-yl)-1H-pyrazolo[3,4-c]pyridine]	11.5
NC[C@H]1CCN(c2cncc(-c3cc4c(-c5ccccc5F)n[nH]c4cn3)c2)C1 [Example 164, (R)-(1-(5-(3-(2-fluorophenyl)-1H-pyrazolo[3,4-c]pyridin-5-yl)pyridin-3-yl)pyrrolidin-3-yl)methanamine]	1.9
N[C@@H]1CCCN(c2cccc(-c3n[nH]c4cnc(-n5ccnc5)cc34)n2)C1 [Example 369, (R)-1-(6-(5-(1H-imidazol-1-yl)-1H-pyrazolo[3,4-c]pyridin-3-yl)pyridin-2-yl)piperidin-3-amine]	1.13
NC(=O)Cc1cc2c(-c3cccc(N4CCNCC4)n3)n[nH]c2cn1 [Example 253, 2-(3-(6-(piperazin-1-yl)pyridin-2-yl)-1H-pyrazolo[3,4-c]pyridin-5-yl)acetamide]	171
NCCNc1cccc(-c2n[nH]c3cnc(-c4cccnc4)cc23)n1 [Example 143, N1-(6-(5-(pyridin-3-yl)-1H-pyrazolo[3,4-c]pyridin-3-yl)pyridin-2-yl)ethane-1,2-diamine]	0.312
CCn1cc(-c2cc3c(-c4nc(N5CCC[C@H](N)C5)ccc4Cl)n[nH]c3cn2)cn1 [Example 466, (S)-1-(5-chloro-6-(5-(1-ethyl-1H-pyrazol-4-yl)-1H-pyrazolo[3,4-c]pyridin-3-yl)pyridin-2-yl)piperidin-3-amine]	0.389
NC1CCCN(c2cncc(-c3cc4c(-c5ccccc5F)n[nH]c4cn3)c2)CC1 (stereo not drawn) [Example 166, 1-(5-(3-(2-fluorophenyl)-1H-pyrazolo[3,4-c]pyridin-5-yl)pyridin-3-yl)azepan-4-amine]	0.574
Fc1ccccc1-c1n[nH]c2cnc(-c3cn[nH]c3)cc12 [Example 136, 3-(2-fluorophenyl)-5-(1H-pyrazol-4-yl)-1H-pyrazolo[3,4-c]pyridine]	8.69
Cc1ccc(-c2n[nH]c3cnc(-c4cccnc4)cc23)nc1F [Example 274, 3-(6-fluoro-5-methylpyridin-2-yl)-5-(pyridin-3-yl)-1H-pyrazolo[3,4-c]pyridine]	4.77
CNc1cccc(-c2n[nH]c3cnc(-c4cccnc4)cc23)n1 [Example 437, N-methyl-6-(5-(pyridin-3-yl)-1H-pyrazolo[3,4-c]pyridin-3-yl)pyridin-2-amine]	0.409
NC[C@@H]1CCCN(c2ccncc2-c2cc3c(-c4ccccc4F)n[nH]c3cn2)C1 [Example 140, (S)-(1-(3-(3-(2-fluorophenyl)-1H-pyrazolo[3,4-c]pyridin-5-yl)pyridin-4-yl)piperidin-3-yl)methanamine]	412
Fc1ccccc1-c1n[nH]c2cnc(-c3cnccn3)cc12 [Example 219, 3-(2-fluorophenyl)-5-(pyrazin-2-yl)-1H-pyrazolo[3,4-c]pyridine]	33.5
CCn1cc(-c2cc3c(-c4ccc(=O)n(CC5(C(N)=O)CCC5)c4)n[nH]c3cn2)cn1 [Example 475, 1-((5-(5-(1-ethyl-1H-pyrazol-4-yl)-1H-pyrazolo[3,4-c]pyridin-3-yl)-2-oxopyridin-1(2H)-yl)methyl) cyclobutanecarboxamidc]	4.49
c1ccc(-c2n[nH]c3cnc(-c4cn[nH]c4)cc23)cc1 [Example 137, 3-phenyl-5-(1H-pyrazol-4-yl)-1H-pyrazolo[3,4-c]pyridine]	4.61
Cn1cc(-c2cc3c(-c4cccc(N5CCOCC5)n4)n[nH]c3cn2)cn1 [Example 420, 4-(6-(5-(1-methyl-1H-pyrazol-4-yl)-1H-pyrazolo[3,4-c]pyridin-3-yl)pyridin-2-yl)morpholine]	0.368
N[C@H]1CCCN(c2cccc(-c3n[nH]c4cnc(-n5ccnc5)cc34)n2)C1 [Example 380, (S)-1-(6-(5-(1H-imidazol-1-yl)-1H-pyrazolo[3,4-c]pyridin-3-yl)pyridin-2-yl)piperidin-3-amine]	0.523
CN1CCN(c2n[nH]c3cnc(-c4cccnc4)cc23)C1=O [Example 254, 1-methyl-3-(5-(pyridin-3-yl)-1H-pyrazolo[3,4-c]pyridin-3-yl)imidazolidin-2-one]	18.5
COc1ccc(F)c(-c2n[nH]c3cnc(-c4cnn(C)c4)cc23)c1 [Example 172, 3-(2-fluoro-5-methoxyphenyl)-5-(1-methyl-1H-pyrazol-4-yl)-1H-pyrazolo[3,4-c]pyridine]	3.76

Stronger by Ki, values ahead:

Ki [nM]	Structure (SMILES)
0.025	N[C@H]1CCCCN(c2cccc(-c3n[nH]c4cnc(-c5cnn(CCF)c5)cc34)n2)C1 [Example 519, (S)-1-(6-(5-(1-(2-fluoroethyl)-1H-pyrazol-4-yl)-1H-pyrazolo[3,4-c]pyridin-3-yl)pyridin-2-yl)azepan-3-amine]
0.13	NCCC1CCN(c2cccc(-c3n[nH]c4cnc(-c5cccnc5)cc34)n2)C1 (stereo not drawn) [Example 333, 2-(1-(6-(5-(pyridin-3-yl)-1H-pyrazolo[3,4-c]pyridin-3-yl)pyridin-2-yl)pyrrolidin-3-yl)ethanamine]
0.039	CCCn1cc(-c2cc3c(-c4cccc(N5CCNCC5)n4)n[nH]c3cn2)cn1 [Example 375, 3-(6-(piperazin-1-yl)pyridin-2-yl)-5-(1-propyl-1H-pyrazol-4-yl)-1H-pyrazolo[3,4-c]pyridine]
0.029	CCn1cc(-c2cc3c(-c4cccc(N5CCNC(C)(C)C5)n4)n[nH]c3cn2)cn1 [Example 446, 3-(6-(3,3-dimethylpiperazin-1-yl)pyridin-2-yl)-5-(1-ethyl-1H-pyrazol-4-yl)-1H-pyrazolo[3,4-c]pyridine]
0.063	CCn1cc(-c2cc3c(-c4cccc(N5CC[C@H](F)[C@H](N)C5)n4)n[nH]c3cn2)cn1 (relative stereo) [Example 465, cis-1-(6-(5-(1-ethyl-1H-pyrazol-4-yl)-1H-pyrazolo[3,4-c]pyridin-3-yl)pyridin-2-yl)-4-fluoropiperidin-3-amine]
0.04	CCn1cc(-c2cc3c(-c4ccc(Br)c(N5CCC[C@H](N)C5)n4)n[nH]c3cn2)cn1 [Example 403, (S)-1-(3-bromo-6-(5-(1-ethyl-1H-pyrazol-4-yl)-1H-pyrazolo[3,4-c]pyridin-3-yl)pyridin-2-yl)piperidin-3-amine]
0.284	Fc1cncc(-c2cc3c(-c4cccc(N5CCNCC5)n4)n[nH]c3cn2)c1 [Example 208, 5-(5-fluoropyridin-3-yl)-3-(6-(piperazin-1-yl)pyridin-2-yl)-1H-pyrazolo[3,4-c]pyridine]
0.0268	N[C@H]1CCN(c2cccc(-c3n[nH]c4cnc(-c5cccnc5)cc34)n2)C1 [Example 268, (S)-1-(6-(5-(pyridin-3-yl)-1H-pyrazolo[3,4-c]pyridin-3-yl)pyridin-2-yl)pyrrolidin-3-amine]
0.01	C#Cc1ccc(-c2n[nH]c3cnc(-c4cccnc4)cc23)nc1N1CCC[C@H](N)C1 [Example 342, (S)-1-(3-ethynyl-6-(5-(pyridin-3-yl)-1H-pyrazolo[3,4-c]pyridin-3-yl)pyridin-2-yl)piperidin-3-amine]
0.113	CN1CCN(c2nc(-c3n[nH]c4cnc(-c5cccnc5)cc34)ccc2Cl)CC1 [Example 255, 3-(5-chloro-6-(4-methylpiperazin-1-yl)pyridin-2-yl)-5-(pyridin-3-yl)-1H-pyrazolo[3,4-c]pyridine]
0.036	Cn1cc(-c2cc3c(-c4cccc(N5CCNCC5)n4)n[nH]c3cn2)cn1 [Example 234, 5-(1-methyl-1H-pyrazol-4-yl)-3-(6-(piperazin-1-yl)pyridin-2-yl)-1H-pyrazolo[3,4-c]pyridine]
0.16	Cc1ccc(-c2n[nH]c3cnc(-c4cnn(C)c4)cc23)nc1N1CCOCC1 [Example 419, 4-(3-methyl-6-(5-(1-methyl-1H-pyrazol-4-yl)-1H-pyrazolo[3,4-c]pyridin-3-yl)pyridin-2-yl)morpholine]
0.009	Cn1cc(-c2cc3c(-c4ccc(C5CC5)c(N5CCC[C@H](N)C5)n4)n[nH]c3cn2)cn1 [Example 486, (S)-1-(3-cyclopropyl-6-(5-(1-methyl-1H-pyrazol-4-yl)-1H-pyrazolo[3,4-c]pyridin-3-yl)pyridin-2-yl)piperidin-3-amine]
